Experimental findings from patent publication US12416052B2, “Capturing, concentrating, and detecting microbes in a sample using magnetic ionic liquids and recombinase polymerase amplification” (priority 2019, dated 2025) are described below.

The test system of series [1] is S. enterica subsp. arizonae. Format: cell-based, Salmonella enterica. On the set-up: key to Relative Affinity for MIL: +++++: higher losses during wash step are due to lower cellular affinity for the MIL; ++++: higher losses during wash step are due to lower cellular affinity for the MIL; +++: higher losses during wash step are due to lower cellular affinity for the MIL; ++: higher losses during wash step are due to lower cellular affinity for the MIL; +: higher losses during wash step are due to lower cellular affinity for the MIL. The procedure:
(§1) A universal schematic for MIL-based cell extraction is depicted in FIG. 7B. A 1 mL volume of diluted cell suspension was added to a flat-bottomed 4-mL screw cap glass vial. Fifteen microliters of either the Ni(II) or Dy(III) MIL was added and dispersed into microdroplets by vortex agitation for 30 s. The aqueous phase was decanted following dispersive extraction, and the MIL was subjected to a brief wash step using 1 mL of nuclease-free water (Integrated DNA Technologies, Coralville, IA, USA) to ensure adequate removal of loosely or incidentally bound cells. After washing, release of viable cells from the MIL extraction phase was carried out using a “back-extraction” step accomplished through addition of 1 mL of an ionically-rich nutritive medium comprised of 20 g L^−1 tryptone and 10 g L^−1 NaCl, followed by a 120 s vortex step. After back-extraction, aliquots of the cell-enriched back-extraction medium were enumerated using the track dilution method using 100×100 mm square, gridded TSA, BSA, CA or VRBGA plates.
(§2) Following back-extraction, aliquots of the cell-enriched back-extraction medium were serially diluted in 0.1% peptone water and a 10 μL aliquot of each dilution was applied to a separate lane on square plates containing an appropriate agar medium. The plates were then tilted at an approximately 80° angle for 15 min to allow the droplets to travel toward the opposite end of the plate. The plates were incubated for 24 h at 37° C. (TSA, VRBGA), for 48 h at 37° C. (BSA) or for 24 h at 37° C. (CA). Colonies were counted and colony forming units (CFU) were determined. The enrichment factor (EF) for MIL-based extraction was calculated using Equation 1, where CMIL represents the concentration of bacteria in suspension following extraction using the MIL and CS is the initial concentration of bacteria in the sample.
(§3) In order to explore the broader utility of our approach, evaluation of additional cell types is needed. We began this extended evaluation of the Ni(II) MIL with seven representative DNA subgroups of Salmonella and eight strains of E. coli O157:H7. Briefly, a 1 mL aliquot of TSB was inoculated with 1×10^6 CFU mL^−1 of bacteria, and spiked with 15 μL of the Ni(II) MIL. MIL-based extraction was performed and 10 μL aliquots of the back-extraction solution were enumerated using TSA and BSA plates (Salmonella) or TSA plates (E. coli O157:H7). […] We later determined that VRBGA was a suitable common medium for this purpose and used this in our statistical analysis. Average CFU counts were compared to standards that were not exposed to the Ni(II) MIL. Enrichment factors were calculated for Salmonella on both non-selective (TSA) and selective agars (BSA) and for E. coli O157:H7 on non-selective agar (TSA). […] Note: As BSA is a Salmonella-specific agar E. coli O157:H7 was not plated to BSA in this example.
(§4) Although all of the strains assessed were capable of being enriched by the MIL, some species were physically enriched to greater extents than others with extraction. In order to further examine the cause for this finding, the number of captured cells lost to the wash solution was investigated. The wash step is performed after the MIL enrichment step in order to remove any incidentally-adsorbed bacteria prior to back-extraction. It is hypothesized that the cells with lower enrichment factors have lower affinities for the MIL and are therefore lost in greater number to the wash solution than those having higher enrichment factors. […] The percent-loss during the wash step ranged from 47-79%. […] EF data from Table 4 for three overlapping Salmonella strains are superimposed to highlight trends in percent-loss, relative affinity and EF.

Series [2] concerns S. enterica subsp. diarizonae. Format: cell-based, Salmonella enterica. On the set-up: key to Relative Affinity for MIL: +++++: higher losses during wash step are due to lower cellular affinity for the MIL; ++++: higher losses during wash step are due to lower cellular affinity for the MIL; +++: higher losses during wash step are due to lower cellular affinity for the MIL; ++: higher losses during wash step are due to lower cellular affinity for the MIL; +: higher losses during wash step are due to lower cellular affinity for the MIL. The protocol: as §1, §2, §3, §4

Series [3] has as its system P. eucalypti 299R. Description: MIL-based whole-cell extraction. On the set-up: species or system Pantoea eucalypti. As to conditions: EF determined using Columbia Agar. The protocol:
(§5) A universal schematic for MIL-based cell extraction is depicted in FIG. 7B. A 1 mL volume of diluted cell suspension was added to a flat-bottomed 4-mL screw cap glass vial. Fifteen microliters of either the Ni(II) or Dy(III) MIL was added and dispersed into microdroplets by vortex agitation for 30 s. The aqueous phase was decanted following dispersive extraction, and the MIL was subjected to a brief wash step using 1 mL of nuclease-free water (Integrated DNA Technologies, Coralville, IA, USA) to ensure adequate removal of loosely or incidentally bound cells. […]
(§6) Following back-extraction, aliquots of the cell-enriched back-extraction medium were serially diluted in 0.1% peptone water and a 10 μL aliquot of each dilution was applied to a separate lane on square plates containing an appropriate agar medium. […] Colonies were counted and colony forming units (CFU) were determined. The enrichment factor (EF) for MIL-based extraction was calculated using Equation 1, where CMIL represents the concentration of bacteria in suspension following extraction using the MIL and CS is the initial concentration of bacteria in the sample.

The subject of series [4] is Y. enterocolitica ATCC 2371. Description: MIL-based whole-cell extraction. On the set-up: species or system Yersinia enterocolitica. The following applies: EF determined using Tryptic Soy Agar. The procedure:
as §5, §6

Series [5] concerns Y. enterocolitica ATCC 9160. Description: MIL-based whole-cell extraction. As to conditions: EF determined using Tryptic Soy Agar. On the set-up: species or system Yersinia enterocolitica. The procedure:
as §5, §6

Series [6] has as its system Salmonella serovars. It counts as cell-based. The procedure:
The following statistical analysis was performed in SAS 9.4. Four master suspensions of bacteria were prepared for four Salmonella enterica serovars: subsp. typhimurium, subsp. arizonae, subsp. diarizonae and subsp. houtenae. Two master suspensions were made for the remaining three Salmonella serovars or species: S. enterica subsp. indica, subsp. salamae and S. bongori. For E. coli O157:H7, two master suspensions of bacteria were prepared for each of the eight strains studied. For all bacteria tested, two replicate extractions from the same master suspension were performed, using the 10-3 dilution. Following MIL-based capture, back-extraction solutions were plated to non-selective agar (TSA) and selective agar (BSA) for Salmonella and SMAC for E. coli. To identify whether significant differences existed for the capture of Salmonella and E. coli O157:H7, we applied a linear mixed model for the response variable (enrichment factor) with log transformation in order to reduce skewness. […]
In order to explore the broader utility of our approach, evaluation of additional cell types is needed. […] We later determined that VRBGA was a suitable common medium for this purpose and used this in our statistical analysis. […] Enrichment factors were calculated for Salmonella on both non-selective (TSA) and selective agars (BSA) and for E. coli O157:H7 on non-selective agar (TSA). […]

Setting [7] is: 1×10^6 CFU mL^−1 in TSB, 15 μL MIL.

Molecules are shown by their SMILES. Several values for one entry are separate records, joined by “and”; a condition that tells them apart may be missing. Equal values may be shown once.

Turning to `CCCCCCCCCCCCCC[P+](CCCCCC)(CCCCCC)CCCCCC.O=C([CH-]C(=O)C(F)(F)F)C(F)(F)F.O=C([CH-]C(=O)C(F)(F)F)C(F)(F)F.O=C([CH-]C(=O)C(F)(F)F)C(F)(F)F.[Ni+2]` [Ni(II) MIL, [P66614^+][Ni(hfacac)3^−]], the figures for the “Relative Affinity for MIL” value in series [1] and in series [2] were “+” and “+++++”, respectively. In addition, the “Enrichment Factor (BSA)” value in series [1] (setting [7]) was 2 and 4; in series [2] (setting [7]), 11. Besides, the “Enrichment Factor (TSA)” value in series [1] (setting [7]) is listed as 3; in series [2] (setting [7]) it was 7. Further, the Percent-Loss in series [1] (cells lost to wash solution) was 79 ± 1%; in series [2] (cells lost to wash solution: wash counts / (wash + back-extraction counts) × 100), 47 ± 7%. Also, the “Enrichment Factor” value came out at 169 in series [3], 5 in series [4] and 5 in series [5]. In addition, the “MIL-conferred injury: recovery on TSA or BSA” value in series [6] (no statistically significant differences (p-value=0.7248)) is listed as “no detectable injury”. Besides, the “recovery on VRBGA compared with TSA” value in series [6] (p-value=0.0004) is recorded as “significantly lower”.
